# PMC11285948, “The effects of CYP2B6 inactivators on the metabolism of ciprofol” (PLOS ONE, 2024)
# Where “and” joins values, the source holds several entries; their conditions need not be identical. Equal values may be shown once.
# How the values were obtained:
# SD rats = assay: Duration of loss of righting reflex (LORR) after ciprofol injection in rats; format: in vivo, rat; conditions: psoralen 27 mg·kg^-1 or clopidogrel 7.5 mg·kg^-1 gavage daily 7 d, then ciprofol 2.4 mg·kg^-1 i.v.
# Procedure: Twenty-four SD rats were randomly and equally divided into three groups: the control group, psoralen group and clopidogrel group. The administration scheme was as follows: the control group received 0.5% carboxy methyl cellulose by gavage (1 mL·200 g^-1), the psoralen group received 27 mg·kg^-1 psoralen by gavage, and the clopidogrel group was gavaged with 7.5 mg·kg^-1 clopidogrel. […] All rats were treated once daily for seven days. Each rat was injected with 2.4 mg·kg^-1 ciprofol via the tail vein 12 h after the end of dosing on Day 7. Rats that received ciprofol injection were placed on a flat and soft insulation pad. Timekeeping began when the rats were in the supine position and lost the righting reflex and ended when the rats could turn to the prone position successfully. The duration of loss of righting reflex (LORR) in each rat was measured. During this period, approximately 300 μL of blood was collected from the inner canthus at 2, 4, 8, 12, 16, 20, 30, 45, and 60 min after ciprofol administration, and the plasma was separated. The plasma was processed and measured as described in Section 2.4.3, and DAS 2.0 software and a noncompartmental model were used to analyse the pharmacokinetic parameters.
# IBM SPSS Statistics 27 software was used to analyse the main pharmacokinetic parameters, and GraphPad Prism 8.0.2 software was used for graphical visualization. […]
# [1] = tested on: ciprofol metabolism in rat liver microsomes (RLMs); assay: Effects of psoralen and clopidogrel on ciprofol metabolism in RLM incubation system (substrate elimination, HPLC-MS/MS); format: in vitro ADME; conditions: for IC50: 10 min preincubation, n = 3; for Relative residual activity (ciprofol metabolism): samples 1-3 and Mean; for degree of inhibitory effect on ciprofol metabolism: grading after ref 23
# Procedure: (§1) The volume of the incubation system was 200 μL and included 2 μL of substrate (ciprofol), 8 μL of rat liver microsomes (RLMs) or 6 μL of human liver microsomes (HLMs), 12 μL of NADPH generation system of solution (solution A 10 μL, solution B 2 μL), and the remaining volume was PBS. The incubation was performed in a water bath at a constant temperature of 37°C, and each sample was incubated three times in parallel.
# (§2) The incubation system was removed from the water bath, and the reaction was terminated immediately by adding 800 μL of reaction termination solution (acetonitrile solution containing 5 μg·mL^-1 D6-ciprofol at 4°C). The mixture was vortexed for 2 min and centrifuged for 15 min, after which the supernatant was transferred to an autosampler vial for HPLC-MS/MS detection.
# (§3) The incubation system was prepared according to the optimal incubation conditions, and different concentrations of psoralen or clopidogrel solution were added to the blank incubation system at concentrations of 0, 5, 12.5, 25, 50, 75, 100, 150, and 200 μmol·L^-1 and 0, 0.2, 0.5, 1, 2, 5, 10, 25, and 50 μmol·L^-1, respectively. The incubation system was preincubated in a water bath (37°C) for 10 min, and ciprofol was added to the system and subsequently incubated subsequently. The effects of psoralen and clopidogrel on the metabolism of ciprofol were investigated based on ΔC.
# (§4) The substrate elimination method was employed in this study, and GraphPad Prism 8.0.2 software was used for statistical processing, including determination of the kinetic parameters of ciprofol metabolism and the IC50 values of psoralen and clopidogrel for ciprofol metabolism. The maximum velocity (Vmax), Michaelis constant (Km) and intrinsic clearance (CLint) were calculated using the […]: V=Vmax×[S]/Km+[S] CLint=Vmax/Km
# [2] = tested on: ciprofol metabolism in human liver microsomes (HLMs); assay: Effects of psoralen and clopidogrel on ciprofol metabolism in HLM incubation system (substrate elimination, HPLC-MS/MS); format: in vitro ADME; conditions: for IC50: 10 min preincubation, n = 3; for Relative residual activity (ciprofol metabolism): samples 1-3 and Mean; for degree of inhibitory effect on ciprofol metabolism: grading after ref 23
# Procedure: as §1, §2, §3, §4
# [3] = tested on: recombinant human CYP2B6 enzyme; conditions: cited from earlier work; for inhibition of recombinant human CYP2B6 enzyme activity: psoralen: ref Ji et al. 13, clopidogrel (bupropion as substrate): ref 31, 32
# ciprofol metabolism = tested on: ciprofol metabolism; parameters: method as in PMID 37309663; conditions: clinical trials NCT03758469, NCT04145583, NCT05181007; cited from earlier work
smiles,measurement,setting,value
COC(=O)[C@H](c1ccccc1Cl)N1CCc2sccc2C1 [clopidogrel],prolongation of duration of LORR compared with control group,SD rats,23.0%
same,IC50,[1],6.38 µM
same,Relative residual activity (ciprofol metabolism),[1]; Cclopidogrel 0.20 μM,96.32% and 84.60% and 95.79%
same,Relative residual activity (ciprofol metabolism),[1]; Cclopidogrel 0.50 μM,90.44% and 83.76% and 96.63%
same,Relative residual activity (ciprofol metabolism),[1]; Cclopidogrel 1.00 μM,88.66% and 86.92% and 76.64%
same,Relative residual activity (ciprofol metabolism),[1]; Cclopidogrel 2.00 μM,75.16% and 58.26% and 69.88%
same,Relative residual activity (ciprofol metabolism),[1]; Cclopidogrel 5.00 μM,50.35% and 43.15% and 60.40%
same,Relative residual activity (ciprofol metabolism),[1]; Cclopidogrel 10.00 μM,42.20% and 50.96% and 39.90%
same,Relative residual activity (ciprofol metabolism),[1]; Cclopidogrel 25.00 μM,32.17% and 28.83% and 23.03%
same,Relative residual activity (ciprofol metabolism),[1]; Cclopidogrel 50.00 μM,11.08% and 18.95% and 13.85%
same,degree of inhibitory effect on ciprofol metabolism,[1],moderate inhibitory effects
same,IC50,[2],2.56 µM
same,Relative residual activity (ciprofol metabolism),[2]; Cclopidogrel 0.20 μM,88.53% and 84.40% and 91.91%
same,Relative residual activity (ciprofol metabolism),[2]; Cclopidogrel 0.50 μM,70.42% and 76.69% and 80.24%
same,Relative residual activity (ciprofol metabolism),[2]; Cclopidogrel 1.00 μM,66.15% and 57.16% and 70.67%
same,Relative residual activity (ciprofol metabolism),[2]; Cclopidogrel 2.00 μM,58.07% and 44.78% and 46.16%
same,Relative residual activity (ciprofol metabolism),[2]; Cclopidogrel 5.00 μM,36.69% and 31.97% and 37.99%
same,Relative residual activity (ciprofol metabolism),[2]; Cclopidogrel 10.00 μM,32.45% and 25.93% and 29.26%
same,Relative residual activity (ciprofol metabolism),[2]; Cclopidogrel 25.00 μM,23.23% and 27.69% and 23.00%
same,Relative residual activity (ciprofol metabolism),[2]; Cclopidogrel 50.00 μM,19.78% and 11.54% and 13.21%
same,degree of inhibitory effect on ciprofol metabolism,[2],moderate inhibitory effects
same,inhibition of recombinant human CYP2B6 enzyme activity,[3],strongly inhibits
same,inactivation potency relative to its thiolactone metabolite,"[3]; recombinant human CYP2B6, bupropion as substrate",11 times
Cc1cccc(Nc2ccccc2C(=O)O)c1C [mefenamic acid],clinical effect on ciprofol metabolism,ciprofol metabolism,no clinical effect
O=c1ccc2cc3ccoc3cc2o1 [psoralen],prolongation of duration of LORR compared with control group,SD rats,16.1%
same,IC50,[1],63.3 µM
same,Relative residual activity (ciprofol metabolism),[1]; Cpsoralen 5 μM,93.09% and 97.46% and 90.99%
same,Relative residual activity (ciprofol metabolism),"[1]; Cpsoralen 5 μM, mean",93.85%
same,Relative residual activity (ciprofol metabolism),[1]; Cpsoralen 12.5 μM,88.25% and 94.23% and 84.23%
same,Relative residual activity (ciprofol metabolism),"[1]; Cpsoralen 12.5 μM, mean",88.90%
same,Relative residual activity (ciprofol metabolism),[1]; Cpsoralen 25 μM,79.18% and 75.1% and 87.55%
same,Relative residual activity (ciprofol metabolism),"[1]; Cpsoralen 25 μM, mean",80.61%
same,Relative residual activity (ciprofol metabolism),[1]; Cpsoralen 50 μM,57.26% and 67.87% and 65.65%
same,Relative residual activity (ciprofol metabolism),"[1]; Cpsoralen 50 μM, mean",63.59%
same,Relative residual activity (ciprofol metabolism),[1]; Cpsoralen 75 μM,32.92% and 44.27% and 51.97%
same,Relative residual activity (ciprofol metabolism),"[1]; Cpsoralen 75 μM, mean",43.05%
same,Relative residual activity (ciprofol metabolism),[1]; Cpsoralen 100 μM,29.87% and 38.51% and 22.31%
same,Relative residual activity (ciprofol metabolism),"[1]; Cpsoralen 100 μM, mean",30.23%
same,Relative residual activity (ciprofol metabolism),[1]; Cpsoralen 150 μM,15.05% and 20.24% and 25.14%
same,Relative residual activity (ciprofol metabolism),"[1]; Cpsoralen 150 μM, mean",20.14%
same,Relative residual activity (ciprofol metabolism),[1]; Cpsoralen 200 μM,14.67% and 20.19% and 12.3%
same,Relative residual activity (ciprofol metabolism),"[1]; Cpsoralen 200 μM, mean",15.72%
same,degree of inhibitory effect on ciprofol metabolism,[1],mild inhibitory effects
same,IC50,[2],34 µM
same,Relative residual activity (ciprofol metabolism),[2]; Cpsoralen 5 μM,85.57% and 90.39% and 83.88%
same,Relative residual activity (ciprofol metabolism),"[2]; Cpsoralen 5 μM, mean",86.61%
same,Relative residual activity (ciprofol metabolism),[2]; Cpsoralen 12.5 μM,76.45% and 75.70% and 82.09%
same,Relative residual activity (ciprofol metabolism),"[2]; Cpsoralen 12.5 μM, mean",78.08%
same,Relative residual activity (ciprofol metabolism),[2]; Cpsoralen 25 μM,55.36% and 59.73% and 68.81%
same,Relative residual activity (ciprofol metabolism),"[2]; Cpsoralen 25 μM, mean",61.30%
same,Relative residual activity (ciprofol metabolism),[2]; Cpsoralen 50 μM,40.24% and 31.49% and 40.07%
same,Relative residual activity (ciprofol metabolism),"[2]; Cpsoralen 50 μM, mean",37.27%
same,Relative residual activity (ciprofol metabolism),[2]; Cpsoralen 75 μM,32.40% and 26.96% and 29.47%
same,Relative residual activity (ciprofol metabolism),"[2]; Cpsoralen 75 μM, mean",29.61%
same,Relative residual activity (ciprofol metabolism),[2]; Cpsoralen 100 μM,17.05% and 23.45% and 21.45%
same,Relative residual activity (ciprofol metabolism),"[2]; Cpsoralen 100 μM, mean",20.65%
same,Relative residual activity (ciprofol metabolism),[2]; Cpsoralen 200 μM,6.19% and 12.50% and 10.40%
same,Relative residual activity (ciprofol metabolism),"[2]; Cpsoralen 200 μM, mean",9.70%
same,degree of inhibitory effect on ciprofol metabolism,[2],mild inhibitory effects
same,inhibition of recombinant human CYP2B6 enzyme activity,[3],moderately inhibit
CO[C@H]1/C=C/O[C@@]2(C)Oc3c(C)c(O)c4c(O)c(c(/C=N/N5CCN(C)CC5)c(O)c4c3C2=O)NC(=O)/C(C)=C\C=C\[C@H](C)[C@H](O)[C@@H](C)[C@@H](O)[C@@H](C)[C@H](OC(C)=O)[C@@H]1C [rifampicin],clinical effect on ciprofol metabolism,ciprofol metabolism,no clinical effect
